20 compounds from patent US20240391871A1, “SUBSTITUTED HYDROXYMETHYL PYRROLIDINES AND MEDICAL USES THEREOF” (ATROGI AB, priority 2021, published 2024) can be followed below.

Structures can show the parent of a compound that is named as a salt.

One test concerns L6-myotubes. The test can be described thus: Glucose uptake (3H-2-deoxyglucose) in differentiated L6-myotubes. Format: cell-based. Conditions: compound 1×10^−5 M, read-out: Biological example 1: glucose uptake, activity compared to that of isoproterenol. As for the experimental part:
(§1) L6-myoblasts were grown in Dulbecco's Modified Eagle's Medium (DMEM) containing 1 g/L glucose supplemented with 10% fetal bovine serum, 2 mM L-Glutamine, 50 U/mL penicillin, 50 μg/mL streptomycin and 10 mM HEPES. Cells were plated at 1×10^5 cells per mL in 24-well plates. After reaching 90% confluence the cells were grown in medium containing 2% FBS for 7 days where upon cells differentiated into myotubes.
Differentiated L6-myotubes were serum-starved overnight in medium containing 0.5% fatty-acid free BSA and stimulated with an agonist, with a final concentration of 1×10^−5 M. After 1 h 40 min the cells were washed with warm glucose free medium or PBS twice and another portion of agonist was added to the glucose free medium. After 20 min the cells were exposed to 50 nM ^3H-2-deoxyglucose for 10 min before washed with ice cold glucose free medium or PBS three times and lysed with 0.2 M NaOH, 400 μL/well, for 1 h at 60° C. The cell lysate was mixed with 4 mL scintillation buffer (Emulsifier Safe, Perkin Elmer) and the radioactivity was detected in a β-counter (Tri-Carb 4810TR, Perkin Elmer). The activity for each compound is compared to that of isoproterenol.

Test [1] deals with Intracellular cAMP levels. Description: Measurement of intracellular cAMP levels in differentiated L6 cells. To be noted: Rattus norvegicus, L6, 0.25 h, compound 1×10^−5 M, 15 min, read-out: Biological example 2: intracellular cAMP levels, activity compared to that of isoproterenol. It counts as cell-based. As for the experimental part:
as §1
Differentiated cells were serum-starved overnight and stimulated with an agonist, final concentration 1×10^−5 M, for 15 min in stimulation buffer (HBSS supplemented with 1% BSA, 5 mM HEPES and 1 mM IBMX, pH 7.4). The medium was aspirated and 100 μL of 95% EtOH was added to each well of the 24-well plate and cells were kept at −20° C. overnight. The EtOH was allowed to evaporate and 500 μL of lysis buffer (1% BSA, 5 mM HEPES and 0.3% Tween-20, pH 7.4) was added to each well. The plate was kept at −80° C. for 30 min and then at −20° C. until the day of detection when the samples were thawed. Intracellular cAMP levels were detected using an alpha screen cAMP kit (6760635D from Perkin Elmer). The activity for each compound is compared to that of isoproterenol.
On the technique in general: cAMP levels reflect the balance of adenylyl cyclase and phosphodiesterase activity.

As for `COc1ccc(C[C@@H]2CC[C@H]([C@H](O)c3cncc(F)c3)N2)cc1` [Example 21, (R)-(5-Fluoropyridin-3-yl)((2R,5S)-5-(4-methoxybenzyl)pyrrolidin-2-yl) -methanol dihydrochloride], the Emax at 10 µM in the test with L6-myotubes is more than 75%; in test [1], less than 25%.

For `CS(=O)(=O)N[C@H]1CC[C@@H](C[C@@H]2CC[C@H]([C@H](O)c3cccc(F)c3)N2)CC1` [Example 38, N-((1R,4s)-4-(((2S,5R)-5-((R)-(3-Fluorophenyl)(hydroxy)methyl)pyrrolidin-2-yl)methyl)cyclohexyl)methanesulfonamide hydrochloride], the Emax at 10 µM with L6-myotubes is more than 75%; in test [1], less than 25%.

On to `CO[C@H]1CC[C@H](C[C@H]2CC[C@H]([C@H](O)c3cncc(F)c3)N2)CC1` [Example 11, (R)-(5-Fluoropyridin-3-yl)((2R,5R)-5-(((1r,4S)-4-methoxycyclohexyl) -methyl)pyrrolidin-2-yl)methanol dihydrochloride], for which the Emax at 10 µM in the test with L6-myotubes is more than 75%; in test [1], less than 25%.

For the compound `CC(=O)N(Cc1ccccc1)[C@H]1CC[C@@H](C[C@@H]2CC[C@H]([C@H](O)c3cccc(F)c3)N2)CC1` [Example 33, N-Benzyl-N-((1R,4s)-4-(((25,5R)-5-((R)-(3-fluorophenyl)(hydroxy)methyl) -pyrrolidin-2-yl)methyl)cyclohexyl)acetamide hydrochloride], the Emax at 10 µM in the test with L6-myotubes was 50 to 75%; in test [1] it was less than 25%.

On to `CS(=O)(=O)N[C@H]1CC[C@H](C[C@@H]2CC[C@H]([C@H](O)c3cccc(F)c3)N2)CC1` [Example 46, N-((1S,4r)-4-(((2S,5R)-5-((R)-(3-Fluorophenyl)(hydroxy)methyl)pyrrolidin-2-yl)methyl)cyclohexyl)methanesulfonamide hydrochloride], for which the Emax at 10 µM with L6-myotubes is more than 75%; in test [1] it was less than 25%.

In the case of `COc1ccc(C[C@@H]2CC[C@H]([C@@H](O)c3cncc(F)c3)N2)cc1` [Example 22, (S)-(5-Fluoropyridin-3-yl)((2R,5S)-5-(4-methoxybenzyl)pyrrolidin-2-yl)methanol dihydrochloride], the Emax at 10 µM in the test with L6-myotubes was more than 75%; in test [1] it was less than 25%.

With `COc1ccc(C[C@@H]2CC[C@H]([C@@H](O)c3cccc(F)c3)N2)cc1` [Example 14, (S)-(3-Fluorophenyl)((2R,5S)-5-(4-methoxybenzyl)pyrrolidin-2-yl)methanol hydrochloride], the Emax at 10 µM is more than 75% in the test with L6-myotubes and less than 25% in test [1].

Regarding `CO[C@H]1CC[C@H](C[C@@]2(C)CC[C@H]([C@H](O)c3cccc(F)c3)N2)CC1` [Example 17, (R)-(3-Fluorophenyl)((2R,5R)-5-(((1r,4R)-4-methoxycyclohexyl)methyl)-5-methylpyrrolidin-2-yl)methanol], the Emax at 10 µM in the test on L6-myotubes is more than 75%; in test [1], 25 to 50%.

With `O[C@@H](c1cccc(F)c1)[C@H]1CC[C@@H](Cc2ccc(Cl)cc2)N1` [Example 26, (S)-((2R,5S)-5-(4-Chlorobenzyl)pyrrolidin-2-yl)(3-fluorophenyl)methanol hydrochloride], the Emax at 10 µM is 50 to 75% in the test on L6-myotubes and less than 25% in test [1].

Regarding `O[C@H](c1cncc(F)c1)[C@H]1CC[C@H](Cc2ccc(Cl)cc2)N1` [Example 31, (R)-((2R,5R)-5-(4-Chlorobenzyl)pyrrolidin-2-yl)(5-fluoropyridin-3-yl) -methanol dihydrochloride], the values for the Emax at 10 µM (with L6-myotubes; in test [1]) were more than 75% and less than 25%, respectively.

Regarding `O[C@@H](c1cccc(F)c1)[C@H]1CC[C@H](Cc2ccc(Cl)cc2)N1` [Example 28, (S)-((2R,5R)-5-(4-Chlorobenzyl)pyrrolidin-2-yl)(3-fluorophenyl)methanol hydrochloride], the Emax at 10 µM is 50 to 75% with L6-myotubes and less than 25% in test [1].

`CC(=O)N(Cc1ccccc1)[C@H]1CC[C@H](C[C@@H]2CC[C@H]([C@@H](O)c3cccc(F)c3)N2)CC1` [Example 43, N-Benzyl-N-((1S,4r)-4-(((2S,5R)-5-((S)-(3-fluorophenyl)(hydroxy)methyl) -pyrrolidin-2-yl)methyl)cyclohexyl)acetamide hydrochloride]: the Emax at 10 µM in the test on L6-myotubes is 50 to 75%; in test [1], less than 25%.

`CO[C@H]1CC[C@H](C[C@@]2(C)CC[C@H]([C@@H](O)c3cccc(F)c3)N2)CC1` [Example 18, (S)-(3-Fluorophenyl)(2R,5R)-5-(((1r,4R)-4-methoxycyclohexyl)methyl)-5-methylpyrrolidin-2-yl)methanol hydrochloride]: the Emax at 10 µM with L6-myotubes is 50 to 75%; in test [1] it was less than 25%.

In the case of `CO[C@H]1CC[C@H](C[C@H]2CC[C@H]([C@@H](O)c3ccccc3F)N2)CC1` [Example 8, (S)-(2-Fluorophenyl)((2R,5R)-5-(((1r,4S)-4-methoxycyclohexyl)methyl) -pyrrolidin-2-yl)methanol hydrochloride], the values for the Emax at 10 µM (in the test on L6-myotubes; in test [1]) were 50 to 75% and less than 25%, respectively.

For the compound `CO[C@H]1CC[C@H](C[C@H]2CC[C@H]([C@@H](O)c3cncc(F)c3)N2)CC1` [Example 12, (S)-(5-Fluoropyridin-3-yl)(2R,5R)-5-(((1r,4S)-4-methoxycyclohexyl) -methyl)pyrrolidin-2-yl)methanol dihydrochloride], the Emax at 10 µM in the test with L6-myotubes was 25 to 50%; in test [1], less than 25%.

As for `O[C@H](c1cccc(F)c1)[C@H]1CC[C@H](Cc2ccc(Cl)cc2)N1` [Example 27, (R)-((2R,5R)-5-(4-Chlorobenzyl)pyrrolidin-2-yl)(3-fluorophenyl)methanol hydrochloride], the Emax at 10 µM in the test with L6-myotubes was more than 75%; in test [1] it was less than 25%.

As to `COc1ccc(C[C@@]2(C)CC[C@H]([C@@H](O)c3cccc(F)c3)N2)cc1` [Example 20, (S)-(3-Fluorophenyl)((2R,5R)-5-(4-methoxybenzyl)-5-methylpyrrolidin-2-yl)methanol hydrochloride], the values for the Emax at 10 µM (with L6-myotubes; in test [1]) were more than 75% and less than 25%, respectively.

For `CS(=O)(=O)N(Cc1ccccc1)[C@H]1CC[C@@H](C[C@@H]2CC[C@H]([C@H](O)c3cccc(F)c3)N2)CC1` [Example 37, N-Benzyl-N-((1R,4s)-4-(((2S,5R)-5-((R)-(3-fluorophenyl)(hydroxy)methyl) -pyrrolidin-2-yl)methyl)cyclohexyl)methanesulfonamide hydrochloride], the Emax at 10 µM was 50 to 75% with L6-myotubes and less than 25% in test [1].

As for `CO[C@H]1CC[C@H](C[C@@H]2CC[C@H]([C@@H](O)c3cncc(F)c3)N2)CC1` [Example 10, (S)-(5-Fluoropyridin-3-yl)((2R,5S)-5-(((1r,4S)-4-methoxycyclohexyl) -methyl)pyrrolidin-2-yl)methanol dihydrochloride], the Emax at 10 µM in the test with L6-myotubes is 25 to 50%; in test [1], less than 25%.

`CC(=O)N[C@H]1CC[C@H](C[C@@H]2CC[C@H]([C@@H](O)c3cccc(F)c3)N2)CC1` [Example 44, N-((1S,4r)-4-(((2S,5R)-5-((S)-(3-Fluorophenyl)(hydroxy)methyl)pyrrolidin-2-yl)methyl)cyclohexyl)acetamide hydrochloride]: the Emax at 10 µM in the test on L6-myotubes is 50 to 75%; in test [1], less than 25%.
